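Exposure lasted 48 hours, with cells grown in 96-well plates and compounds tested at five concentrations. The concentration for full growth arrest is given as TGI.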
Key:
Test in all cases: inhibition of tumour cell growth, NCI panel, 48 h
SK-MEL-5 melanoma = system: SK-MEL-5 melanoma
SF-295 CNS = system: SF-295 CNS
ACHN renal = system: ACHN renal
SW-620 colon = system: SW-620 colon
SNB-78 CNS = system: SNB-78 CNS
UACC-62 melanoma = system: UACC-62 melanoma
A549 NSCLC = system: A549 NSCLC
HCC-2998 colon = system: HCC-2998 colon
HL-60(TB) leukemia = system: HL-60(TB) leukemia
SK-OV-3 ovarian = system: SK-OV-3 ovarian
A498 renal = system: A498 renal
OVCAR-5 ovarian = system: OVCAR-5 ovarian
SNB-19 CNS = system: SNB-19 CNS
OVCAR-4 ovarian = system: OVCAR-4 ovarian
M19-MEL melanoma = system: M19-MEL melanoma
DLD-1 colon = system: DLD-1 colon
LXFL 529 NSCLC = system: LXFL 529 NSCLC
UO-31 renal = system: UO-31 renal
M14 melanoma = system: M14 melanoma
RXF 393 renal = system: RXF 393 renal
SF-539 CNS = system: SF-539 CNS
U251 CNS = system: U251 CNS
HOP-18 NSCLC = system: HOP-18 NSCLC
CCRF-CEM leukemia = system: CCRF-CEM leukemia
OVCAR-3 ovarian = system: OVCAR-3 ovarian
COLO 205 colon = system: COLO 205 colon
786-0 renal = system: 786-0 renal
HCT-15 colon = system: HCT-15 colon
SK-MEL-2 melanoma = system: SK-MEL-2 melanoma
MALME-3M melanoma = system: MALME-3M melanoma
NCI-H226 lung = system: NCI-H226 lung
SNB-75 CNS = system: SNB-75 CNS
CAKI-1 renal = system: CAKI-1 renal
SK-MEL-28 melanoma = system: SK-MEL-28 melanoma
HT29 colon = system: HT29 colon
K-562 leukemia = system: K-562 leukemia
NCI-H23 lung = system: NCI-H23 lung
DMS 114 small cell lung = system: DMS 114 small cell lung
SN12C renal = system: SN12C renal
TK-10 renal = system: TK-10 renal
DMS 273 small cell lung = system: DMS 273 small cell lung
IGROV1 ovarian = system: IGROV1 ovarian
LOX IMVI melanoma = system: LOX IMVI melanoma
MOLT-4 leukemia = system: MOLT-4 leukemia
KM20L2 colon = system: KM20L2 colon
SF-268 CNS = system: SF-268 CNS
EKVX NSCLC = system: EKVX NSCLC
HOP-62 NSCLC = system: HOP-62 NSCLC
KM12 colon = system: KM12 colon
OVCAR-8 ovarian = system: OVCAR-8 ovarian
XF 498 CNS = system: XF 498 CNS
UACC-257 melanoma = system: UACC-257 melanoma
RPMI-8226 leukemia = system: RPMI-8226 leukemia
HCT-116 colon = system: HCT-116 colon
HOP-92 NSCLC = system: HOP-92 NSCLC
SR leukemia = system: SR leukemia
NCI-H460 lung = system: NCI-H460 lung
PC-3 prostate = system: PC-3 prostate
MDA-MB-435 = system: MDA-MB-435
NCI/ADR-RES ovarian = system: NCI/ADR-RES ovarian
MCF7 breast = system: MCF7 breast
BT-549 breast = system: BT-549 breast
MDA-N = system: MDA-N
RXF-631 renal = system: RXF-631 renal
HS 578T breast = system: HS 578T breast
MDA-MB-231 breast = system: MDA-MB-231 breast
NCI-H522 lung = system: NCI-H522 lung
T-47D breast = system: T-47D breast
DU-145 prostate = system: DU-145 prostate

Measured: TGI

CC1=C(O)c2cn(C)cc2C(=O)C1=O
> 100 µM: SK-MEL-5 melanoma | SF-295 CNS | ACHN renal | SW-620 colon | SNB-78 CNS | UACC-62 melanoma | A549 NSCLC | HCC-2998 colon | HL-60(TB) leukemia | SK-OV-3 ovarian | A498 renal | OVCAR-5 ovarian | SNB-19 CNS | OVCAR-4 ovarian | M19-MEL melanoma | DLD-1 colon | LXFL 529 NSCLC | UO-31 renal | M14 melanoma | RXF 393 renal | SF-539 CNS | U251 CNS | HOP-18 NSCLC | CCRF-CEM leukemia | OVCAR-3 ovarian | COLO 205 colon | 786-0 renal | HCT-15 colon | SK-MEL-2 melanoma | MALME-3M melanoma | NCI-H226 lung | SNB-75 CNS | CAKI-1 renal | SK-MEL-28 melanoma | HT29 colon | K-562 leukemia | NCI-H23 lung | DMS 114 small cell lung | SN12C renal | TK-10 renal | DMS 273 small cell lung | IGROV1 ovarian | LOX IMVI melanoma | MOLT-4 leukemia | KM20L2 colon | SF-268 CNS | EKVX NSCLC | HOP-62 NSCLC | KM12 colon | OVCAR-8 ovarian | XF 498 CNS | UACC-257 melanoma | RPMI-8226 leukemia | HCT-116 colon | HOP-92 NSCLC | SR leukemia | NCI-H460 lung

Nc1nc2c(ncn2C2CCC(CO)O2)c(=O)n1C(=O)c1ccccc1 (centres undefined)
> 100 µM: SK-MEL-5 melanoma | PC-3 prostate | SF-295 CNS | ACHN renal | SW-620 colon | UACC-62 melanoma | A549 NSCLC | MDA-MB-435 | HCC-2998 colon | HL-60(TB) leukemia | NCI/ADR-RES ovarian | MCF7 breast | SK-OV-3 ovarian | A498 renal | BT-549 breast | MDA-N | OVCAR-5 ovarian | SNB-19 CNS | OVCAR-4 ovarian | M19-MEL melanoma | DLD-1 colon | LXFL 529 NSCLC | UO-31 renal | RXF-631 renal | M14 melanoma | RXF 393 renal | SF-539 CNS | U251 CNS | CCRF-CEM leukemia | OVCAR-3 ovarian | COLO 205 colon | 786-0 renal | HCT-15 colon | SK-MEL-2 melanoma | MALME-3M melanoma | NCI-H226 lung | SNB-75 CNS | CAKI-1 renal | HS 578T breast | SK-MEL-28 melanoma | HT29 colon | K-562 leukemia | MDA-MB-231 breast | NCI-H522 lung | NCI-H23 lung | DMS 114 small cell lung | SN12C renal | TK-10 renal | DMS 273 small cell lung | IGROV1 ovarian | LOX IMVI melanoma | MOLT-4 leukemia | KM20L2 colon | SF-268 CNS | T-47D breast | EKVX NSCLC | HOP-62 NSCLC | KM12 colon | OVCAR-8 ovarian | XF 498 CNS | UACC-257 melanoma | DU-145 prostate | RPMI-8226 leukemia | HCT-116 colon | HOP-92 NSCLC | SR leukemia | NCI-H460 lung

Source: PubChem BioAssay (NCI)
